Measurements from patent US20120121680A1, “ANIMAL REPELLING DEICER” (NORTH AMERICAN SALT COMPANY, priority 2010, published 2012).

Tested on: whitetail deer
Assay: Free-choice consumption of repellent-adulterated salt by salt-deprived deer
Assay type: in vivo
Conditions: mean per 48-hour provision, dry matter basis
Description: The products evaluated were three classes of commercially available, non-lethal repellents. Products that repel deer based on taste modification, chemical irritation and fear were evaluated. One gram of water was used to blend the dry repellents with loose salt in a V-mixer (tumble mixer). Liquid repellents were added directly to salt and blended using the V-mixer. After blending, the adulterated salt was weighed into labeled, channel-lock bags, sealed, and stored for eventual delivery to the test farm.
Testing was carried out at the farm of a whitetail deer farmer located in Indiana. The testing was carried out by both the farmer and a veterinarian. Approximately twelve deer that ranged in age from 1.5 to 3 years were used in the study. The deer appeared to be healthy at the beginning of the study and maintained satisfactory health during the completion of the study. Signs consistent with clinical disease were not observed, and medical treatments were not administered to any of the deer. The deer were divided into two groups and housed in two separate grass paddocks. Each paddock housed approximately six deer. The size of the paddocks was about 250 ft.×100 ft.
The deer used in the study were fed a diet that was devoid of supplemental salt. Feed was provided in plastic feeders on the ground and inside a wooden, three-sided feeding station that was constructed by the farm owner. Feeding stations were present in both paddocks. Salt was provided free-choice in shallow, black rubber pans, and the pans were housed in a raised, wooden trough that was mounted on the wall of the feeding station. Water was provided to the deer in round plastic containers located within the paddocks. Water and feed were provided to the deer by the farm owner.
Prior to initiation of the study, the salt-free diet and free-choice, unadulterated salt were provided to the deer for a period of one-week to permit acclimation to the feeding regimen. After initiation of the study, access to salt was restricted in an attempt to impose a state of salt deprivation in the deer. Free-choice, unadulterated salt was removed, and the deer were fed the diet deficient in salt for a period of 48 hours to induce salt deprivation. After 48 hours, free-choice salt containing the different repellents was provided. After 48 hours, salt containing the repellents was removed, and another 48-hour period of salt deprivation was imposed followed by provision of adulterated salt for another 48-hour period. The regimen of 48 hours of adulterated salt provision, 48 hours of salt deprivation was used throughout the study and constituted an experimental replication. A total of eight replications were completed for the chemical irritation and fear class of repellents. A total of seven replications were completed for the taste class of repellents.
The pans containing adulterated salt were randomly arranged in the raised, wooden trough on each replication to prevent the deer from becoming habituated to the placement of repellents in a particular position in the trough. A one-week period of access to unadulterated salt was permitted after the final replication of the respective classes of repellents was completed. The experimental period for each class of repellents varied between 28 and 32 days.
Absolute dry matter of unadulterated salt was determined by drying 1 gram samples in a 212° F. (100° C.) oven for a period of 24 hours. Dry matter of unadulterated salt was determined to be 99.8%. After collection of adulterated and unadulterated salt from the feeding stations, the salt was transferred to aluminum pans and dried in a 131° F. (55° C.) oven for 48 hours to determine physiologic dry matter.
Salt consumption was determined by calculating the difference between salt provided and salt collected after 48 hours. The data was converted to, and expressed on, a dry matter basis.
Consumption data for the two paddocks was merged for analysis. […]

[1] = taste repellents in free salt at Table 1 inclusion rates, seven replications

Compound	Consumed [1]	other results
Sodium caseinate	7.62 g	
[Cl-].[Li+] [Lithium Chloride, Lithium chloride]		Consumed (chemical irritation repellent, 0.38% by weight in salt, eight replications): 7.06 g
COc1cc(CNC(=O)CCCC/C=C/C(C)C)ccc1O [Capsaicin]		Consumed (chemical irritation repellent, 0.007% by weight in salt, eight replications): 8.81 g; Consumed (chemical irritation repellent, 0.07% by weight in salt, eight replications): 9.38 g
Acid casein	8.21 g	
CC[N+](CC)(CC(=O)Nc1c(C)cccc1C)Cc1ccccc1 [Bitrex, Denatonium benzoate]	8.29 g	
Rennet casein	10.43 g	
